Results taken from PubChem BioAssay (NCI).
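Five concentrations, 48 hours, 96-well plates. GI50 is the concentration that inhibits growth by half. TGI is the concentration that stops growth completely.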

Tests used:
Assay in all cases: NCI-60 cell line screen, 48 h
[1] = test system: UO-31 renal
[2] = test system: RPMI-8226 leukemia
[3] = test system: 786-0 renal
[4] = test system: MOLT-4 leukemia
[5] = test system: RXF 393 renal
[6] = test system: OVCAR-3 ovarian
[7] = test system: A549 NSCLC
[8] = test system: TK-10 renal
[9] = test system: SR leukemia
[10] = test system: COLO 205 colon

Row | Structure (SMILES) | TGI [1] [µM] | TGI [2] [µM] | TGI [3] [µM] | TGI [4] [µM] | TGI [5] [µM] | TGI [6] [µM] | TGI [7] [µM] | TGI [8] [µM] | TGI [9] [µM] | TGI [10] [µM] | GI50 [1] [µM] | GI50 [2] [µM] | GI50 [3] [µM] | GI50 [4] [µM] | GI50 [5] [µM] | GI50 [6] [µM] | GI50 [7] [µM] | GI50 [8] [µM] | GI50 [9] [µM] | GI50 [10] [µM]
1 | c1ccc2c(c1)[Se]c1ccccc1[Se]2 | > 100 | > 100 | > 100 | > 100 | > 100 | > 100 | > 100 | > 100 | > 100 | > 100 |  |  |  |  |  |  |  |  |  | 
2 | CP(=O)(CCSc1ccccc1)c1ccccc1 (centres undefined) | > 100 | > 100 | > 100 | > 100 | > 100 | > 100 | > 100 | > 100 | > 100 | > 100 |  |  |  |  |  |  |  |  |  | 
3 | O=c1c2cc(-c3ccccc3)sc2nc2sc(-c3ccccc3)nn12 | > 100 | > 100 | > 100 | > 100 | > 100 | > 100 | > 100 | > 100 | > 100 | > 100 |  |  |  |  |  |  |  |  |  | 
4 | Cc1ccc2nc(NC(=O)CSC(=S)N3CCN(Cc4ccccc4)CC3)sc2c1 | > 100 | > 100 | > 100 | > 100 | > 100 | > 100 | > 100 | > 100 | > 100 | > 100 | > 79.5 | 75.9 | > 100 | > 100 | > 100 | > 100 | > 100 | > 100 | > 100 | > 100
5 | Cc1cc(Cl)ccc1N1C(=O)C(=O)C(c2nc3ccccc3s2)/C(=N\NC(=O)c2ccccc2O)C1=O (centres undefined) | > 100 | > 100 | > 100 | > 21 | > 100 | > 100 | > 100 | > 100 | > 100 | > 100 |  |  |  |  |  |  |  |  |  | 
6 | CC(C)(C)OC(=O)N(CCCn1c2c(c3ccccc3c1=O)C(=O)c1ccccc1-2)CCN(CCCn1c2c(c3ccccc3c1=O)C(=O)c1ccccc1-2)C(=O)OC(C)(C)C | > 50 | > 50 | > 50 | 16.1 | > 50 | > 50 | > 50 | > 50 | 13.7 | > 50 | > 50 | 12.1 | 13.6 | 4 | 12.6 | 13.2 | 25.4 | > 50 | 2.26 | > 50
7 | C=C(C)[C@@H]1CC[C@]2(C)[C@H](CC=C3[C@@H]4CC(C)(C)CC[C@]4(C(=O)OC)CC[C@]32C)[C@@]1(C)CC/C(N)=N/O | 2.94 | 6.57 | 3.19 | 5.25 | 3.67 | 3.18 | 7.75 | 18.6 | 5.2 | 6.54 | 1.51 | 1.95 | 1.76 | 2.09 | 1.8 | 1.67 | 2.15 | 3.66 | 1.81 | 2.46
8 | CC(=O)OC1CC(C)c2c1ncnc2N1CCN(C(=O)OC(C)(C)C)CC1 (centres undefined) | > 100 | > 100 | > 100 | > 100 | > 100 | 82.7 | > 100 | > 100 | 63.7 | > 100 | > 100 | 35.1 | 56.2 | 37.2 | 31.9 | 32.3 | 44.2 | 70.8 | 21.6 | 38.5
9 | COc1cc2c3c(n(CCCn4cccn4)c(=O)c2cc1OC)-c1cc2c(cc1C3=O)OCO2 | 18.1 | 22.4 | 2.76 | > 35.9 | 27.7 | > 100 | > 100 | > 100 | 1.57 | > 100 | 0.962 | 2.44 | 0.429 | 0.351 | 5.76 | 33.7 | 2.87 | 35.1 | 0.0465 | 5.25
10 | COc1ccccc1NC(=O)N/C(N)=N/c1nc2ccccc2s1 | > 100 | > 72.4 | > 100 | > 100 | 0.731 | 0.317 | > 100 | > 100 | > 100 | > 100 | 0.389 | 0.163 | 0.288 | 0.162 | 0.0402 | 0.0403 | 0.107 |  | 0.0228 | 0.254
11 | Cc1cc(C)c(S(=O)(=O)Oc2ccccc2[N+](=O)[O-])c(C)c1 | > 100 | > 100 | > 100 | > 100 | 7.83 | 3.63 | > 100 | > 100 | > 100 | 12.9 | 3.27 | 2.54 | 5.58 | 1.39 | 2.48 | 1 | 4.19 | 4.86 | 0.443 | 2.9
12 | O=C(O/N=C1/CCC/C1=C\c1ccccc1)c1ccc(Cl)cc1 | > 100 | > 100 | > 100 | > 100 | > 31.6 | > 71.9 | > 100 | > 100 | > 100 | > 100 |  |  |  |  |  |  |  |  |  | 
